Assay results as given in patent US10351883B2, “Compounds for increasing lipid synthesis and storage” (NUtech Ventures, priority 2015, dated 2019).
Where two headings read alike, the source gives them in different places.

Assays:
Format in all cases: cell-based
[1] = system: Chlamydomonas reinhardtii cells; assay: Microscopy of treated cells (organelles, lipid droplets); conditions: FIG. 1
Experimental: (§1) The screening library included 43,736 compounds (ChemBridge, Corp). […] A sub-set of compounds were retested using an 8-point dose response assay (0.25-30 μM). Compounds were further assessed visually using a Nikon Ti-inverted microscope (60×) to reconfirm lipid droplet accumulation was induced.

[2] = system: Tetrachlorella alterns UTEX 2453; assay: Lipid accumulation in algal cells; conditions: 0.63 μM to 50 μM, FIG. 11A-11C
Experimental: (§2) Compounds 1, 62, and 136 were assayed in algal species Chlamydomonas reinhardtii CC125, Chlorella sorokiniana UTEX 1230, Chlorella vulgaris UTEX 395, and Tetrachlorella alterns UTEX 2453 at concentrations ranging from 0.63 μM to 50 μM.

[3] = system: Chlorella vulgaris UTEX 395; assay: Lipid accumulation in algal cells; conditions: 0.63 μM to 50 μM, FIG. 11A-11C
Experimental: as §2

[4] = system: Chlamydomonas reinhardtii CC125; assay: Lipid accumulation in algal cells; conditions: 0.63 μM to 50 μM, FIG. 11A-11C
Experimental: as §2

[5] = system: Chlorella sorokiniana UTEX 1230; assay: Lipid accumulation in algal cells; conditions: 0.63 μM to 50 μM, FIG. 11A-11C
Experimental: as §2

[6] = system: Chlamydomonas reinhardtii cells; assay: Cellular chlorophyll and carotenoid levels; conditions: 30 μM, FIG. 7
[7] = system: Chlamydomonas reinhardtii cells; assay: Triglyceride assay; conditions: 5 μM, FIG. 6
[8] = system: Chlamydomonas reinhardtii cells; assay: Lipid accumulation using lipophilic dye Nile Red
Experimental: […] At the indicated times 200 μL cells were removed from each well and optical density and nile red fluorescence were measured.
Lipid accumulation over a period of 72 hours was also measured (30 μM test compound) using lipophilic dye Nile Red, as shown in FIG. 4. […] FIGS. 12A-12C show representative images of C. reinhardtii cultures that were treated with 10 μM of representative test compounds of Formula Ia, Formula IIa, and Formula IIIa. The corresponding lipid accumulation was visualized using confocal microscopy after 72 hours in culture.

[9] = system: Chlamydomonas reinhardtii cells; assay: Levels of proteins required for photosynthesis; conditions: Rubisco large and small sub unit, PSa D, PSb A, phosphoribulokinase, histone; FIG. 8
[10] = system: Chlamydomonas reinhardtii cells; assay: Fatty acid assay; conditions: 30 μM, FIG. 5
[11] = system: Chlamydomonas reinhardtii cells; assay: Total protein levels in cells; conditions: FIG. 10
[12] = system: Chlamydomonas reinhardtii cells; assay: Cellular carbohydrate levels; conditions: 30 μM, FIG. 9
[13] = system: Chlamydomonas reinhardtii; assay: 8-point dose response assay (0.25-30 μM); design: reference not given here; conditions: for Dose Response Assay 0.25 μM: 0.25 μM compound; for Dose Response Assay 0.625 μM: 0.625 μM compound; for Dose Response Assay 2.5 μM: 2.5 μM compound; for Dose Response Assay 5 μM: 5 μM compound; for Dose Response Assay 10 μM: 10 μM compound; for Dose Response Assay 15 μM: 15 μM compound; for Dose Response Assay 30 μM: 30 μM compound
Experimental: A large scale in vivo high throughput screen (HTS) was performed to identify small compounds that stimulate lipid production and accumulation using the model organism Chlamydomonas reinhardtii. The HTS employed a 384-well microplate format in which cells were allowed to grow in the presence of the test compounds at 10 μM final concentration for 72 hours.
as §1

[14] = 8-point dose response, Nile Red lipid accumulation
[15] = 1.25 μM compound, 8-point dose response, Nile Red lipid accumulation

Structure (SMILES) | Dose Response Assay 0.25 μM [13, 14] | Dose Response Assay 0.625 μM [13, 14] | Dose Response Assay 2.5 μM [13, 14] | Dose Response Assay 5 μM [13, 14] | Dose Response Assay 10 μM [13, 14] | Dose Response Assay 15 μM [13, 14] | Dose Response Assay 30 μM [13, 14] | Dose Response Assay 1.25 μM [13] | further results
COc1ccc(CCN(C)Cc2ccc([N+](=O)[O-])cc2)cc1OC [Compound 1, 2-(3,4-dimethoxyphenyl)-N-methyl-N-(4-nitrobenzyl)ethan-1-amine] | – | – | – | – | – | – | – | – | disruption of major organelles including nucleus, endoplasmic reticulum, and chloroplast [1]: does not disrupt major organelles; lipid accumulation [2]: stimulated lipid accumulation; lipid accumulation [3]: stimulated lipid accumulation; lipid accumulation [4]: stimulated lipid accumulation; lipid accumulation [5]: stimulated lipid accumulation; carotenoid levels [6]: did not significantly alter; levels of chlorophyll A (Chl A) [6]: did not significantly alter; levels of chlorophyll B (Chl B) [6]: did not significantly alter; triacylglyercol levels [7]: increased triacylglyercol levels; lipid accumulation ([8]; 0.5 μM to 15.0 μM, FIG. 3): increased lipid accumulation; lipid accumulation over 72 hours ([8]; 30 μM test compound, FIG. 4): increased lipid accumulation; levels of proteins required for photosynthesis [9]: did not significantly affect; fatty acid levels [10]: increased fatty acid levels; total protein levels [11]: None of the test compounds significantly affected; carbohydrate levels [12]: increased carbohydrate levels
O=C(Nc1ccc([N+](=O)[O-])cc1)c1c(F)c(F)c(F)c(F)c1F [Compound 56] | 1.2 | 1.2 | 1.8 | 2.58 | 2.71 | 1.74 | 1.92 | – | Dose Response Assay 1.25 μM [13, 15]: 1.34
CCC1CCCCN1C(=O)c1ccc(Cl)cc1[N+](=O)[O-] (centres unmarked) [Compound 57] | 0.99 | 1.06 | 0.90 | 1.28 | 1.11 | 1.15 | 1.87 | – | Dose Response Assay 1.25 μM [13, 15]: 1.01
O=C1CC(N2CCc3ccccc3C2)C(=O)N1c1ccc([N+](=O)[O-])cc1 (centres unmarked) [Compound 58] | 1.06 | 0.94 | 0.90 | 1.22 | 1.15 | 1.42 | 1.56 | – | Dose Response Assay 1.25 μM [13, 15]: 1.14
CCOc1c(Cl)cc(C(=O)Nc2cccc([N+](=O)[O-])c2)cc1Cl [Compound 61] | 0.90 | 0.96 | 0.95 | 1.04 | 0.91 | 1.24 | 1.14 | – | Dose Response Assay 1.25 μM [13, 15]: 0.92
COc1ccccc1N1CCN(Cc2ccc(Cl)cc2)CC1 [Compound 68] | 1.07 | 1.05 | 2.15 | 2.1 | 1.95 | 2.74 | 2.03 | 1.28 | –
Fc1ccc(CN2CCN(c3ccccc3Cl)CC2)cc1 [Compound 69] | 1.05 | 0.96 | 3.01 | 2.44 | 3.49 | 3.49 | 2.54 | 1.29 | –
CC(C)c1ccc(CN2CCN(C)CC2)cc1 [Compound 70] | 0.87 | 1.55 | 4.4 | 8.64 | 7.57 | 11.05 | 11.07 | 2.19 | –
Cc1cccc(N2CCN(Cc3ccc([N+](=O)[O-])cc3)CC2)c1C [Compound 74] | – | – | – | – | – | – | – | 0.80 | –
CCc1ccc(CN2CCN(c3ccccc3C)CC2)cc1 [Compound 84] | 0.92 | 0.89 | 2.5 | 2.05 | 1.64 | 2.19 | 1.34 | 1 | –
Brc1ccc(CN2CCN(c3ccccc3)CC2)cc1 [Compound 86] | 0.98 | 1.01 | 2.39 | 2.29 | 2.71 | 3.38 | 3.76 | 1.69 | –
COc1cc(CN2CCN(Cc3ccccc3)CC2)cc(OC)c1 [Compound 99] | 0.98 | 0.84 | 1.4 | 1.96 | 2.96 | 3.37 | 4.22 | 0.97 | –
COc1cccc(CN2CCN(C(=O)c3cc(OC)c(OC)c(OC)c3)CC2)c1OC [Compound 101] | 1.03 | 1.08 | 0.88 | 1.58 | 1.04 | 1.43 | 1.75 | 1.14 | –
CCN1CCN(Cc2ccc(N(CC)CC)cc2)CC1 [Compound 104] | 1.23 | 3.68 | 5.27 | 4.04 | 2.81 | 3.28 | 3.69 | 3.96 | –
Oc1ccc(Cl)cc1CN1CCN(Cc2ccccc2)CC1 [Compound 107] | 0.98 | 1.01 | 2.05 | 2.31 | 2.48 | 3.07 | 3.06 | 1.23 | –
COc1ccccc1C(=O)N1CCN(C(=O)C(c2ccccc2)c2ccccc2)CC1 [Compound 120] | 0.91 | 0.64 | 1.12 | 1.07 | 2.15 | 3.19 | 1.02 | 0.89 | –
O=[N+]([O-])c1ccccc1CN1CCN(CC2CC3C=CC2C3)CC1 (centres unmarked) [Compound 124] | – | – | – | – | 0.88 | – | – | 0.99 | –
CC(=O)NC1=C(N2CCN(Cc3ccccc3)CC2)C(=O)c2ccccc2C1=O [Compound 134] | 0.97 | 1.06 | 1.32 | 1.77 | 1.31 | 1.97 | 2.14 | 0.93 | –
Cl.Oc1ccccc1CNCCC12CC3CC(CC(C3)C1)C2 [Compound 148] | 0.94 | 1.04 | 1.32 | 1.63 | 1.39 | 1.65 | 1.45 | – | Dose Response Assay 1.25 μM [13, 15]: 0.88
